Measured values published in patent EP0565593B1, “REDUCING PESTICIDAL INTERACTIONS IN CROPS” (priority 1990, dated 1992).

Tested on: Corn
Assay: Greenhouse test, combination of Procedures II and III: insecticide in-furrow or in cover layer, herbicide and antidote incorporated in cover layer (Examples 1-3, 6; Tables 1-3, 6)
Format: in vivo
Details: for Percent Injury Corn: 7 weeks; for % Injury Corn / % Corn Injury PN 3320 / % Corn Injury PN 3377: 3 weeks
[1] = Ex. 6: Antidote 1 0.14 + Herbicide 1 0.14 Kg/Ha
[2] = Ex. 6: Antidote 1 0.42 + Herbicide 1 0.14 Kg/Ha
[3] = Ex. 6: Antidote 1 0.56 + Herbicide 1 0.56 Kg/Ha
[4] = Ex. 6: Antidote 1 1.68 + Herbicide 1 0.56 Kg/Ha
[5] = Ex. 6: Insecticide 1 0.23 Kg/305m + Antidote 1 0.14 + Herbicide 1 0.14 Kg/Ha
[6] = Ex. 6: Insecticide 1 0.23 Kg/305m + Antidote 1 0.42 + Herbicide 1 0.14 Kg/Ha
[7] = Ex. 6: Insecticide 1 0.23 Kg/305m + Antidote 1 0.56 + Herbicide 1 0.56 Kg/Ha
[8] = Ex. 6: Insecticide 1 0.23 Kg/305m + Antidote 1 1.68 + Herbicide 1 0.56 Kg/Ha

## CC1(C)OC(c2ccco2)CN1C(=O)C(Cl)Cl (stereo not drawn) [Antidote No. 1, Oxazolidine, 3-(dichloroacetyl)-2,2-dimethyl-5-(2-furanyl)-]
Antidote 1 0.14 + Herbicide 1 0.14 Kg/Ha
  Percent Injury Corn: 2%
Antidote 1 0.56 + Herbicide 1 0.56 Kg/Ha
  Percent Injury Corn: 5%
Antidote 1 2.24 + Herbicide 1 2.24 Kg/Ha
  Percent Injury Corn: 15%
Antidote 1 2.24 Kg/Ha alone
  Percent Injury Corn: 0%
Ex. 2: Antidote 1 0.14 + Herbicide 1 0.14 Kg/Ha
  % Injury Corn: 0%
Ex. 2: Antidote 1 0.42 + Herbicide 1 0.14 Kg/Ha
  % Injury Corn: 8%
Ex. 2: Antidote 1 0.56 + Herbicide 1 0.56 Kg/Ha
  % Injury Corn: 3%
Ex. 2: Antidote 1 1.68 + Herbicide 1 0.56 Kg/Ha
  % Injury Corn: 5%
Ex. 2: Herbicide No. 1 0.14 kg/ha + Insecticide 1 or 2, antidote applied at 3 X the herbicide rate
  injury to corn: less than 10%
Ex. 2: Insecticide 1 0.11 kg/305m + Antidote 1 0.14 + Herbicide 1 0.14 Kg/Ha
  % Injury Corn: 26%
Ex. 2: Insecticide 1 0.11 kg/305m + Antidote 1 0.42 + Herbicide 1 0.14 Kg/Ha
  % Injury Corn: 6%
Ex. 2: Insecticide 1 0.11 kg/305m + Antidote 1 0.56 + Herbicide 1 0.56 Kg/Ha
  % Injury Corn: 30%
Ex. 2: Insecticide 1 0.11 kg/305m + Antidote 1 1.68 + Herbicide 1 0.56 Kg/Ha
  % Injury Corn: 18%
Ex. 2: Insecticide 1 0.23 Kg/305m + Antidote 1 0.14 + Herbicide 1 0.14 Kg/Ha
  % Injury Corn: 18%
Ex. 2: Insecticide 1 0.23 Kg/305m + Antidote 1 0.22 + Herbicide 1 0.14 + Herbicide 2 4.48 Kg/Ha
  % Injury Corn: 20%
Ex. 2: Insecticide 1 0.23 Kg/305m + Antidote 1 0.42 + Herbicide 1 0.14 Kg/Ha
  % Injury Corn: 6%
Ex. 2: Insecticide 1 0.23 Kg/305m + Antidote 1 0.56 + Herbicide 1 0.56 Kg/Ha
  % Injury Corn: 33%
Ex. 2: Insecticide 1 0.23 Kg/305m + Antidote 1 1.68 + Herbicide 1 0.56 Kg/Ha
  % Injury Corn: 34%
Ex. 2: Insecticide 2 3.36 Kg/Ha + Antidote 1 0.22 + Herbicide 1 0.14 + Herbicide 2 4.48 Kg/Ha
  % Injury Corn: 29%
Ex. 2: Insecticide 2 3.36 Kg/Ha + Antidote 1 0.22 + Herbicide 2 4.48 Kg/Ha
  % Injury Corn: 19%
Ex. 3: Antidote 1 0.14 + Herbicide 1 0.14 Kg/Ha
  % Injury Corn: 3%
Ex. 3: Antidote 1 0.22 + Herbicide 2 4.48 Kg/Ha
  % Injury Corn: 13%
Ex. 3: Antidote 1 0.42 + Herbicide 1 0.14 Kg/Ha
  % Injury Corn: 3%
Ex. 3: Antidote 1 0.56 + Herbicide 1 0.56 Kg/Ha
  % Injury Corn: 8%
Ex. 3: Antidote 1 1.68 + Herbicide 1 0.56 Kg/Ha
  % Injury Corn: 3%
Ex. 3: Herbicide No. 1 + Insecticide 3 or 4, Antidote No. 1 at 1:1 ratio, all cases
  corn injury: less than 5%
Ex. 3: Insecticide 3 (227g) + Antidote 1 0.14 + Herbicide 1 0.14 Kg/Ha
  % Injury Corn: 0%
Ex. 3: Insecticide 3 (227 g) + Antidote 1 0.22 + Herbicide 1 0.14 + Herbicide 2 4.48 Kg/Ha
  % Injury Corn: 18%
Ex. 3: Insecticide 3 (227 g) + Antidote 1 0.22 + Herbicide 2 4.48 Kg/Ha
  % Injury Corn: 25%
Ex. 3: Insecticide 3 (227g) + Antidote 1 0.42 + Herbicide 1 0.14 Kg/Ha
  % Injury Corn: 20%
Ex. 3: Insecticide 3 (227g) + Antidote 1 1.68 + Herbicide 1 0.56 Kg/Ha
  % Injury Corn: 8%
Ex. 3: Insecticide 4 (227g) + Antidote 1 0.14 + Herbicide 1 0.14 Kg/Ha
  % Injury Corn: 3%
Ex. 3: Insecticide 4 (227g) + Antidote 1 0.22 + Herbicide 1 0.14 + Herbicide 2 4.48 Kg/Ha
  % Injury Corn: 48%
Ex. 3: Insecticide 4 (227g) + Antidote 1 0.22 + Herbicide 2 4.48 Kg/Ha
  % Injury Corn: 45%
Ex. 3: Insecticide 4 (227g) + Antidote 1 0.42 + Herbicide 1 0.14 Kg/Ha
  % Injury Corn: 5%
Ex. 3: Insecticide 4 (227g) + Antidote 1 0.56 + Herbicide 1 0.56 Kg/Ha
  % Injury Corn: 28%
Ex. 3: Insecticide 4 (227g) + Antidote 1 1.68 + Herbicide 1 0.56 Kg/Ha
  % Injury Corn: 5%
[1]
  % Corn Injury PN 3320: 15%
  % Corn Injury PN 3377: 15%
[2]
  % Corn Injury PN 3320: 10%
  % Corn Injury PN 3377: 0%
[3]
  % Corn Injury PN 3320: 68%
  % Corn Injury PN 3377: 0%
[4]
  % Corn Injury PN 3320: 43%
  % Corn Injury PN 3377: 0%
[5]
  % Corn Injury PN 3320: 40%
  % Corn Injury PN 3377: 18%
[6]
  % Corn Injury PN 3320: 25%
  % Corn Injury PN 3377: 3%
[7]
  % Corn Injury PN 3320: 40%
  % Corn Injury PN 3377: 35%
[8]
  % Corn Injury PN 3320: 35%
  % Corn Injury PN 3377: 35%
Ex. 6: Insecticide 2 0.23 Kg/305m + Antidote 1 0.14 + Herbicide 1 0.14 Kg/Ha
  % Corn Injury PN 3320: 15%
